Reference: the supplement of paper PMC10307832

What was measured:
Test in all cases: relative viability (nuclei count vs DMSO), 5 days (fraction); higher = more cells survive
[1] = compound: Cc1ccccc1C(C(=O)NC1CCCCC1)N(C(=O)Cn1ccnc1C)c1cccc(F)c1 [IDH-C35] + Cc1nc(Nc2ncc(C(=O)Nc3c(C)cccc3Cl)s2)cc(N2CCN(CCO)CC2)n1 [Dasatinib] (partner 0.075 µM)
In short: (§1)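 Nuclei were stained with Hoechst during a one-step fixation (final 0.05% Triton X-100, 1% formaldehyde, 1 ug/ml Hoechst) carried out 5 days after dosing, then counted on 4× images. The cells, lung cancer lines in 1536-well plates, had been dosed by pin tool the day after seeding with one drug alone or a fixed anchor-drug dose plus five library-drug doses (not always all listed) in √10 steps. Relative viability is the nuclei count in treated wells divided by that in vehicle wells, and each value is the median of duplicate plates.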

[2] = compound: Cc1ccccc1C(C(=O)NC1CCCCC1)N(C(=O)Cn1ccnc1C)c1cccc(F)c1 [IDH-C35] + COc1cccc2cc(-c3nc([C@H]4CC[C@H](C(=O)O)CC4)n4ncnc(N)c34)[nH]c12 [OSI-027] (partner 0.5 µM)
In short: as §1

[3] = compound: Cc1ccccc1C(C(=O)NC1CCCCC1)N(C(=O)Cn1ccnc1C)c1cccc(F)c1 [IDH-C35] + Nc1nc2[nH]cc(CCc3ccc(C(=O)N[C@@H](CCC(=O)O)C(=O)O)cc3)c2c(=O)[nH]1 [Pemetrexed] (partner 0.2 µM)
In short: as §1

[4] = compound: CC1=C(C(=NN1)C)CC2=C(C3=C(S2)N(C(=O)N(C3=O)C)CC(C)C)C(=O)N4C[C@@H](CO4)O + Cc1cc(Nc2cc(N3CCN(C)CC3)nc(Sc3ccc(NC(=O)C4CC4)cc3)n2)n[nH]1 [Tozasertib] (partner 0.1 µM)
In short: as §1

Work on UMC-11 yielded a relative viability ([1]; first compound 0.08 µM) of 0.416, a relative viability ([1]; first compound 0.253 µM) of 0.472 and a relative viability ([1]; first compound 0.8 µM) of 0.474. For the same cell line, the relative viability ([1]; first compound 2.53 µM) was 0.532, the relative viability ([1]; first compound 8 µM) was 0.443 and the relative viability ([2]; first compound 0.08 µM) was 0.444. The relative viability ([2]; first compound 0.253 µM) was 0.47, the relative viability ([2]; first compound 0.8 µM) was 0.473 and the relative viability ([2]; first compound 2.53 µM) was 0.482. For the same cell line, the relative viability ([2]; first compound 8 µM) was 0.463, the relative viability ([3]; first compound 0.08 µM) was 0.811 and the relative viability ([3]; first compound 0.253 µM) was 0.915. The relative viability ([3]; first compound 0.8 µM) was 0.804, the relative viability ([3]; first compound 2.53 µM) was 0.853 and the relative viability ([3]; first compound 8 µM) was 0.88. It also gave a relative viability ([4]; first compound 0.0025 µM) of 0.199, a relative viability ([4]; first compound 0.007906 µM) of 0.172 and a relative viability ([4]; first compound 0.025 µM) of 0.196. The relative viability ([4]; first compound 0.07906 µM) was 0.207 and the relative viability ([4]; first compound 0.25 µM) was 0.175.
